Assay results: patent publication US20060025566A1, “Macrocyclic modulators of the ghrelin receptor” (Tranzyme Pharma Inc., priority 2003, published 2006)
Read-outs that look alike come from different tables or passages of the source.

What was measured:
[1] = target: T1, human growth hormone secretagogue receptor (hGHS-R1a) (Homo sapiens, UniProt Q92847); assay: Competitive radioligand binding assay (ghrelin receptor), [125I]-ghrelin displacement on GHS-R/HEK 293 membranes; conditions: read-out: Ki
T1 construct: purchased PerkinElmer BioSignal #RBHGHSM, lot#1887; host or cells: HEK-293, stably transfected (membranes)
T1 sequence (Q92847 whole entry): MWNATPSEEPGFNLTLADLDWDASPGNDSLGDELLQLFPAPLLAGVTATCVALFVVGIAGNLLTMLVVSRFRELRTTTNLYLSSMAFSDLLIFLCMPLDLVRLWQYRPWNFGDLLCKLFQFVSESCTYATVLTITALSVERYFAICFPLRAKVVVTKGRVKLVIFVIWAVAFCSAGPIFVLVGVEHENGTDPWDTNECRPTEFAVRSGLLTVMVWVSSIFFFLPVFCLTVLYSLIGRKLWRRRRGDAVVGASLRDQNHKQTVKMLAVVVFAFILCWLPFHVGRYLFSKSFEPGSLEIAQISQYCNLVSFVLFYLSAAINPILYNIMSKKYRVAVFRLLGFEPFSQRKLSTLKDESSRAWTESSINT
Protocol: The competitive binding assay at the human growth hormone secretagogue receptor (hGHS-R1a) was carried out analogously to assays described in the literature.
Multiscreen Harvest plates-GF/C (Millipore, #MAHFC 1H60) • 4. […] Bottom seal (Millipore, #MATAH0P00) • 7. […] Binding Buffer: 25 mM Hepes (pH 7.4), 1 mM CaCl2, 5 mM MgCl2, 2.5 mM EDTA, 0.4% BSA Assay Volumes
Competition experiments were performed in a 300 μl filtration assay format. • 1. 220 μL of membranes diluted in binding buffer • 2. 40 μL of compound diluted in binding buffer • 3. […] Compound Handling
Compounds were provided frozen on dry ice at a stock concentration of 10 mM diluted in 100% DMSO and stored at −80° C. until the day of testing. On the test day, compounds were allowed to thaw at rt O/N and then diluted in assay buffer according to the desired test concentrations.
Plates were sealed with TopSeal-A, vortexed gently and incubated at rt for 30 min. The reaction was arrested by filtering samples through Multiscreen Harvest plates (pre-soaked in 0.5% polyethyleneimine) using a Tomtec Harvester, washed 9 times with 500 μL of cold 50 mM Tris-HCl (pH 7.4, 4° C.), and then plates were air-dried in a fumehood for 30 min. A bottom seal was applied to the plates prior to the addition of 25 μL of MicroScint-0 to each well. […] Results were expressed as counts per minute (cpm).
Data were analyzed by GraphPad Prism (GraphPad Software, San Diego, Calif.) using a variable slope non-linear regression analysis.
(§1) • 1. […] Key Aspects of Method • 1. […] Results

[2] = target: human ghrelin receptor (hGHS-R1a) (Homo sapiens, UniProt Q92847); assay: Aequorin functional assay (ghrelin receptor), CHO-K1 cells co-expressing Gα16 and aequorin; type: cell-based; conditions: functional (agonist) activity, standard method; TFA salts unless otherwise noted
Sequence of human ghrelin receptor (hGHS-R1a) (Q92847 whole entry): as above
From the text: Coelenterazine (Molecular Probes, Leiden, The Netherlands). […] Compound Handling
as §1

[3] = binding activity at the human ghrelin receptor, [125I]-ghrelin displacement
[4] = second table titled 3C (compounds 435-449), human ghrelin receptor

| Ki [1, 3] [nM] | SMILES | other results |
| --- | --- | --- |
| 100 to 1000 | CC[C@H](C)[C@@H]1NCCOc2ccccc2CCCNC(=O)[C@@H](Cc2c[nH]cn2)NC(=O)[C@@H](C)N(C)C1=O [compound 305] |  |
| 0.1 to 10 | C[C@@H]1C(=O)N[C@H](Cc2ccc(F)cc2)C(=O)NCCCc2ccccc2OCCN[C@@H](C2CC2)C(=O)N1C [compound 309] |  |
| 0.1 to 10 | C[C@@H]1C(=O)N[C@H](Cc2ccccc2F)C(=O)NCCCc2ccccc2OCCN[C@@H](C2CC2)C(=O)N1C [compound 312] |  |
| 0.1 to 10 | CC1C(=O)NC(Cc2ccc(Cl)c(Cl)c2)C(=O)NCCCc2ccccc2OCCNC(C2CC2)C(=O)N1C (stereo not drawn) [compound 315] |  |
| 10 to 100 | C[C@@H]1C(=O)N[C@H](Cc2ccc(F)c(F)c2)C(=O)NCCCc2ccccc2OCCN[C@@H](C2CC2)C(=O)N1C [compound 316] |  |
| 10 to 100 | C[C@@H]1C(=O)N[C@H](Cc2cc(F)cc(F)c2)C(=O)NCCCc2ccccc2OCCN[C@@H](C2CC2)C(=O)N1C [compound 317] |  |
| 0.1 to 10 | C[C@@H]1C(=O)N[C@H](Cc2ccc(Br)cc2)C(=O)NCCCc2ccccc2OCCN[C@@H](C2CC2)C(=O)N1C [compound 319] |  |
| 0.1 to 10 | C[C@@H]1C(=O)N[C@H](Cc2ccc(I)cc2)C(=O)NCCCc2ccccc2OCCN[C@@H](C2CC2)C(=O)N1C [compound 320] |  |
| 10 to 100 | C[C@@H]1C(=O)N[C@H](Cc2ccc(C#N)cc2)C(=O)NCCCc2ccccc2OCCN[C@@H](C2CC2)C(=O)N1C [compound 321] |  |
| 0.1 to 10 | CC1C(=O)NC(Cc2ccc(C(F)(F)F)cc2)C(=O)NCCCc2ccccc2OCCNC(C2CC2)C(=O)N1C (stereo not drawn) [compound 322] | EC50 [2]: 1 to 100 nM; Ki ([1]; binding activity, standard method, TFA salts unless otherwise noted): 0.1 to 10 nM |
| 10 to 100 | CCC(C)C1NCCOc2ccccc2C=CCNC(=O)C(Cc2cccc(F)c2)NC(=O)C2(CCCC2)NC1=O (stereo not drawn) [compound 325] |  |
| 10 to 100 | CCC(C)C1NCCOc2ccccc2C=CCNC(=O)C(Cc2cccc(OC)c2)NC(=O)C2(CCCC2)NC1=O (stereo not drawn) [compound 328] |  |
| 100 to 1000 | COC[C@@H]1NCCOc2ccccc2CCCNC(=O)[C@@H](Cc2ccc(F)cc2)NC(=O)[C@@H](C)N(C)C1=O [compound 336] |  |
| 100 to 1000 | C[C@@H]1C(=O)N[C@H](Cc2ccc(F)cc2)C(=O)NCCCc2ccccc2OCCN[C@@H](CN)C(=O)N1C [compound 337] |  |
| 100 to 1000 | C[C@@H]1C(=O)N[C@H](Cc2ccc(F)cc2)C(=O)NCCCc2ccccc2OCCN[C@@H](CCN)C(=O)N1C [compound 338] |  |
| 100 to 1000 | C[C@@H]1C(=O)N[C@H](Cc2ccc(F)cc2)C(=O)NCCCc2ccccc2OCCN[C@@H](CCCN)C(=O)N1C [compound 339] |  |
| 10 to 100 | CSCC[C@@H]1NCCOc2ccccc2CCCNC(=O)[C@@H](Cc2ccc(F)cc2)NC(=O)[C@@H](C)N(C)C1=O [compound 340] |  |
| 100 to 1000 | COc1ccccc1C[C@@H]1NCCOc2ccccc2/C=C/CNC(=O)[C@H](Cc2cccc(Cl)c2)NC(=O)C2(CCCC2)NC1=O [compound 343] |  |
| 100 to 1000 | CCC(C)C1NCCOc2ccccc2C=CCNC(=O)C(COCc2ccccc2)NC(=O)C2(CCCC2)NC1=O (stereo not drawn) [compound 347] |  |
| 0.1 to 10 | C[C@@H]1C(=O)N[C@H](Cc2cc(F)c(F)c(F)c2)C(=O)NCCCc2ccccc2OCCN[C@@H](C2CC2)C(=O)N1C [compound 391] |  |
| 0.1 to 10 | CC1C(=O)NC(Cc2ccc(F)cc2)C(=O)NCC=Cc2ccccc2OCCNC(C2CC2)C(=O)N1C (stereo not drawn) [compound 401] |  |
|  | O=C1NC/C=C/c2ccccc2OCCNC2(CCCC2)C(=O)NC2(CCCC2)C(=O)N[C@H]1Cc1cccc(Cl)c1 [compound 437] | Ki [1, 4]: 0.1 to 10 nM |
|  | CCC(C)C1NCCOc2ccccc2C=CCNC(=O)C(Cc2ccc(C(=O)O)cc2)NC(=O)C2(CCCC2)NC1=O (stereo not drawn) [compound 441] | Ki [1, 4]: 1000 to 10000 nM |
|  | CCC(C)C1NCCOc2ncccc2CCCNC(=O)C(Cc2cccc(Cl)c2)NC(=O)C2(CCCC2)NC1=O (stereo not drawn) [compound 449] | Ki [1, 4]: 1000 to 10000 nM |
|  | C[C@@H]1C(=O)N[C@H](Cc2ccccc2)C(=O)NCCCc2ccccc2OCCN2CCCC[C@H]2C(=O)N1C [drawing 1187] | Ki ([1]; Table 3E, human ghrelin receptor): 10 to 100 nM |
